Test results: PubChem BioAssay (NCI)
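Where inhibition never reached the appropriate level, the endpoint shown equals the highest concentration tested. Otherwise, values were interpolated linearly from a five-concentration, 48-hour dose response in 96-well plates. TGI denotes the concentration required for complete inhibition of growth.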

Legend:
Test in all cases: NCI-60 cell line screen, 48 h
HCT-116 colon = system: HCT-116 colon
T-47D breast = system: T-47D breast
NCI-H23 lung = system: NCI-H23 lung
NCI-H226 lung = system: NCI-H226 lung
SF-295 CNS = system: SF-295 CNS
HCT-15 colon = system: HCT-15 colon
KM12 colon = system: KM12 colon
NCI/ADR-RES ovarian = system: NCI/ADR-RES ovarian
MDA-MB-435 = system: MDA-MB-435
CAKI-1 renal = system: CAKI-1 renal
MDA-N = system: MDA-N
RPMI-8226 leukemia = system: RPMI-8226 leukemia
786-0 renal = system: 786-0 renal
SK-MEL-5 melanoma = system: SK-MEL-5 melanoma
HCC-2998 colon = system: HCC-2998 colon
M14 melanoma = system: M14 melanoma
UACC-62 melanoma = system: UACC-62 melanoma
UACC-257 melanoma = system: UACC-257 melanoma
OVCAR-8 ovarian = system: OVCAR-8 ovarian
SK-MEL-2 melanoma = system: SK-MEL-2 melanoma
SNB-19 CNS = system: SNB-19 CNS
PC-3 prostate = system: PC-3 prostate
UO-31 renal = system: UO-31 renal
SW-620 colon = system: SW-620 colon
IGROV1 ovarian = system: IGROV1 ovarian
MALME-3M melanoma = system: MALME-3M melanoma
A498 renal = system: A498 renal
K-562 leukemia = system: K-562 leukemia
NCI-H522 lung = system: NCI-H522 lung
HOP-62 NSCLC = system: HOP-62 NSCLC
EKVX NSCLC = system: EKVX NSCLC
A549 NSCLC = system: A549 NSCLC
ACHN renal = system: ACHN renal
COLO 205 colon = system: COLO 205 colon
RXF 393 renal = system: RXF 393 renal
HT29 colon = system: HT29 colon
OVCAR-5 ovarian = system: OVCAR-5 ovarian
MOLT-4 leukemia = system: MOLT-4 leukemia
SK-OV-3 ovarian = system: SK-OV-3 ovarian
LOX IMVI melanoma = system: LOX IMVI melanoma
SR leukemia = system: SR leukemia
SNB-75 CNS = system: SNB-75 CNS
NCI-H460 lung = system: NCI-H460 lung
SK-MEL-28 melanoma = system: SK-MEL-28 melanoma
U251 CNS = system: U251 CNS
SF-268 CNS = system: SF-268 CNS
TK-10 renal = system: TK-10 renal
DU-145 prostate = system: DU-145 prostate
BT-549 breast = system: BT-549 breast
OVCAR-4 ovarian = system: OVCAR-4 ovarian
SN12C renal = system: SN12C renal
MDA-MB-231 breast = system: MDA-MB-231 breast
CCRF-CEM leukemia = system: CCRF-CEM leukemia
MCF7 breast = system: MCF7 breast
SF-539 CNS = system: SF-539 CNS
HL-60(TB) leukemia = system: HL-60(TB) leukemia
HS 578T breast = system: HS 578T breast
HOP-92 NSCLC = system: HOP-92 NSCLC
OVCAR-3 ovarian = system: OVCAR-3 ovarian

With CC(=O)O[C@@H]1C2=C(C)C=C(O2)[C@H]2O[C@]2(C)C[C@H]2C=C(C(=O)O2)[C@H](OC(C)=O)CC1[C@@]1(C)CO1 (some centres undefined) the TGI (HCT-116 colon) was 28.4 µM, the TGI (T-47D breast) was 39.7 µM and the TGI (NCI-H23 lung) was > 100 µM. The TGI (NCI-H226 lung) was > 100 µM, the TGI (SF-295 CNS) was > 100 µM and the TGI (HCT-15 colon) was 63.6 µM. For the same compound, the TGI (KM12 colon) was > 100 µM, the TGI (NCI/ADR-RES ovarian) was > 100 µM and the TGI (MDA-MB-435) was 71.8 µM. The TGI (CAKI-1 renal) was 62.8 µM, the TGI (MDA-N) was > 100 µM and the TGI (RPMI-8226 leukemia) was 33.9 µM. The TGI (786-0 renal) was 77.1 µM, the TGI (SK-MEL-5 melanoma) was > 100 µM and the TGI (HCC-2998 colon) was > 100 µM. The TGI (M14 melanoma) was 64.2 µM, the TGI (UACC-62 melanoma) was 56.3 µM and the TGI (UACC-257 melanoma) was > 100 µM. The TGI (OVCAR-8 ovarian) was > 100 µM, the TGI (SK-MEL-2 melanoma) was > 100 µM and the TGI (SNB-19 CNS) was > 100 µM. The TGI (PC-3 prostate) was > 100 µM, the TGI (UO-31 renal) was 51.4 µM and the TGI (SW-620 colon) was 26.1 µM. For the same compound, the TGI (IGROV1 ovarian) was 30.8 µM, the TGI (MALME-3M melanoma) was 58.4 µM and the TGI (A498 renal) was > 100 µM. The TGI (K-562 leukemia) was 36.5 µM, the TGI (NCI-H522 lung) was 12.5 µM and the TGI (HOP-62 NSCLC) was 57.9 µM. For the same compound, the TGI (EKVX NSCLC) was 85 µM, the TGI (A549 NSCLC) was > 100 µM and the TGI (ACHN renal) was 61.6 µM. The TGI (COLO 205 colon) was 27.1 µM, the TGI (RXF 393 renal) was 36.8 µM and the TGI (HT29 colon) was > 100 µM. The TGI (OVCAR-5 ovarian) was 76.8 µM, the TGI (MOLT-4 leukemia) was 25.2 µM and the TGI (SK-OV-3 ovarian) was > 100 µM. For the same compound, the TGI (LOX IMVI melanoma) was 37.6 µM, the TGI (SR leukemia) was 47.5 µM and the TGI (SNB-75 CNS) was > 100 µM. The TGI (NCI-H460 lung) was > 100 µM, the TGI (SK-MEL-28 melanoma) was 36 µM and the TGI (U251 CNS) was 40.1 µM. The TGI (SF-268 CNS) was > 100 µM, the TGI (TK-10 renal) was > 100 µM and the TGI (DU-145 prostate) was > 100 µM. The TGI (BT-549 breast) was 48.5 µM, the TGI (OVCAR-4 ovarian) was > 100 µM and the TGI (SN12C renal) was 69.8 µM. The TGI (MDA-MB-231 breast) was 78.8 µM, the TGI (CCRF-CEM leukemia) was 29.6 µM and the TGI (MCF7 breast) was 44.8 µM. It also gave a TGI (SF-539 CNS) of 83.4 µM.
For N#CCCC1(CCC#N)CCCCCCCCC(CCC#N)(CCC#N)C(=O)C1=O, the TGI (HCT-116 colon) was > 100 µM, the TGI (T-47D breast) was > 100 µM and the TGI (HL-60(TB) leukemia) was > 100 µM. The TGI (NCI-H23 lung) was > 100 µM, the TGI (NCI-H226 lung) was > 100 µM and the TGI (SF-295 CNS) was > 100 µM. The TGI (HCT-15 colon) was > 100 µM, the TGI (KM12 colon) was > 100 µM and the TGI (NCI/ADR-RES ovarian) was > 100 µM. For the same compound, the TGI (MDA-MB-435) was > 100 µM, the TGI (CAKI-1 renal) was > 100 µM and the TGI (MDA-N) was > 100 µM. For the same compound, the TGI (786-0 renal) was > 100 µM, the TGI (HCC-2998 colon) was > 100 µM and the TGI (M14 melanoma) was > 100 µM. The TGI (UACC-62 melanoma) was > 100 µM, the TGI (UACC-257 melanoma) was > 100 µM and the TGI (OVCAR-8 ovarian) was > 100 µM. For the same compound, the TGI (SK-MEL-2 melanoma) was > 100 µM, the TGI (SNB-19 CNS) was > 100 µM and the TGI (PC-3 prostate) was > 100 µM. The TGI (SW-620 colon) was > 100 µM, the TGI (MALME-3M melanoma) was > 100 µM and the TGI (K-562 leukemia) was > 100 µM. The TGI (NCI-H522 lung) was 88.2 µM, the TGI (HS 578T breast) was > 100 µM and the TGI (HOP-62 NSCLC) was > 100 µM. For the same compound, the TGI (EKVX NSCLC) was > 100 µM, the TGI (A549 NSCLC) was > 100 µM and the TGI (ACHN renal) was > 100 µM. For the same compound, the TGI (COLO 205 colon) was > 100 µM, the TGI (HT29 colon) was > 100 µM and the TGI (OVCAR-5 ovarian) was > 100 µM. For the same compound, the TGI (SK-OV-3 ovarian) was > 100 µM, the TGI (LOX IMVI melanoma) was > 100 µM and the TGI (SR leukemia) was > 100 µM. For the same compound, the TGI (SNB-75 CNS) was > 100 µM, the TGI (NCI-H460 lung) was > 100 µM and the TGI (SK-MEL-28 melanoma) was > 100 µM. For the same compound, the TGI (HOP-92 NSCLC) was > 100 µM, the TGI (OVCAR-3 ovarian) was > 100 µM and the TGI (U251 CNS) was > 100 µM. The TGI (SF-268 CNS) was > 100 µM, the TGI (TK-10 renal) was > 100 µM and the TGI (DU-145 prostate) was > 100 µM. For the same compound, the TGI (OVCAR-4 ovarian) was > 100 µM, the TGI (SN12C renal) was > 100 µM and the TGI (MCF7 breast) was > 100 µM. For the same compound, the TGI (SF-539 CNS) was > 100 µM.
